From patent US20230203485A1, “METHODS FOR MODULATING MHC-I EXPRESSION AND IMMUNOTHERAPY USES THEREOF” (Dana-Farber Cancer Institute, Inc., priority 2020, published 2023)

Legend:
Format in all cases: cell-based, human
[1] = system: HLA-DR expression on MCC cell lines; assay: Flow cytometry assessment of HLA-DR expression in MCC lines at baseline and after IFN-γ; settings: MCC-301 line
Method: FIG. 1N is a graph showing flow cytometry assessment of HLA-DR expression in all 11 MCC lines, both at baseline (light pink) and after IFN-γ treatment (red).
Cells were dissociated with Versene and incubated with 5 μL Human TruStain FcX (Fc receptor blocking solution; Biolegend, Dedham, Mass.) per million cells in […] at room temperature for 10 min. Fluorochrome-conjugated antibodies or respective isotype controls were immediately added and incubated for another 30 min at 4° C. Cells were then washed once with PBS and resuspended in PBS containing 4% paraformaldehyde and analyzed on LSR Fortessa cytometers. Additional steps were described for individual experiments as below. For upregulation of HLA Class I experiment, 5×10^5 MCC cells were treated with increasing doses of IFNα2b, IFN3, IFNγ for 24 hours, or MEK inhibitors and DMSO for 72 hours before staining with W6/32 and Live/Dead as above.

class I gene transcripts = assay: RNA-seq of MCC lines before and after IFN-γ stimulation
Method: For samples from the MCC tumors and newly generated cell lines, RNA was first assessed for quality using the Agilent Bioanalyzer (DV200 metric). 100 ng of RNA were used as the input for first strand cDNA synthesis using Superscript III reverse transcriptase and Illumina's TruSeq RNA Access Sample Prep Kit. Synthesis of the second strand of cDNA was followed by indexed adapter ligation with UMI (unique molecular index) adaptors. Subsequent PCR amplification enriched for adapted fragments. Amplified libraries were quantified, normalized, pooled, and hybridized with exome targeting oligos. Following hybridization, bead clean-up, elution, and PCR was performed to prepare library pools for sequencing on Illumina flowcell lanes. Transcriptomes were sequenced to a coverage of at least 50 million reads in pairs.
Gene counts were obtained from BAM files using featureCounts version 2.0.0. Very lowly expressed genes with average count across samples less than 1 were excluded from analysis. […]
Differential expression analysis was carried out between IFN-γ plus and minus samples (adjusting for viral status as a covariate) using the negative binomial GLM Wald test of DESeq2, where significance was assessed using the p-values adjusted for multiple comparisons under default settings. […]

[2] = system: HLA-I and IFN pathway proteins; assay: Whole proteome analysis of MCC cell lines with and without IFN-γ
Method: Protein expression of MCC cell lines was assessed. Briefly, cell pellets of MCC cell lines with and without IFN-γ treatment were lysed in 8M Urea and digested to peptides using LysC and Trypsin (Promega). 400 μg peptides were labeled with TMT10 reagents (Thermo Fisher, 126-MCC-290, 127N-MCC-350_IFN, 127C MCC-275_IFN, 128N MCC-275, 128C MCC-350, 129N_MCC-301_IFN, 129C-MCC-277_IFN, 130N-MCC-290_IFNy, 130C MCC-277, 131 MCC-301) and then pooled for subsequent fractionation and analysis. Pooled peptides were separated into 24 fractions using offline high pH reversed phase fractionation. 1 μg per fraction was loaded onto an analytical column (20-30 cm with 1.9 μm C18 Reprosil beads [Dr. Maisch HPLC GmbH], packed in-house, PicoFrit 75 μM inner diameter, 10 μM emitter [New Objective]). Peptides were eluted with a linear gradient (EasyNanoLC 1000 or 1200, Thermo Scientific) ranging from 6-30% Buffer B (either 0.1% formic acid or 0.5% AcOH and 80% or 90% acetonitrile) over 84 min 30-90% Buffer B over 9 min, and held at 90% Buffer B for 5 min at 200 nl/min. During data dependent acquisition, peptides were analyzed on a Fusion Lumos (Thermo Scientific). Full scan MS was acquired at a 60,000 from 300-1,800 m/z. AGC target was set to 4e5 and 50 ms. […]

IFN-y: type II interferon, recombinant human, used to treat MCC cells
HLA-DR expression [1]: inducible HLA-DR expression

IFN-γ: interferon gamma used to stimulate MCC cell lines
class I gene transcripts (class I gene transcripts; MCC lines, IFN-γ treatment): markedly upregulated
HLA-A, -B, and -C mRNA upregulation (class I gene transcripts; MCC-336 (non-IFN-γ-responsive)): lack of IFN-induced HLA-A, -B, and -C mRNA upregulation
class I upregulation in matched proteomes ([2]; 4 MCC lines): confirmed
HLA-I and IFN pathway upregulation at the protein level ([2]; MCC-350 (non-IFN-γ-responsive), including STAT1 phosphorylation): global lack of IFN-induced HLA-I and IFN pathway upregulation
